For assay [1], the target named is T1, hACSL5 (Homo sapiens (Human), UniProt Q9ULC5). The experiment in a line: Human ACSL5 coupled enzyme Amplex Red assay. The assay is classed as biochemical. The following applies: read-out: hACSL5 IC50. As to the method: Human ACSL5 (33-683) was cloned with a C-terminal 6 His tag and expressed in insect cells (sf9) as per standard insect cell expression protocols. Human ACSL5 was enriched by affinity nickel affinity chromatography followed by Superdex S200 gel filtration column equilibrated in 20 mM HEPES pH 7.8, 500 mM NaCl, 1 mM TCEP, 5% glycerol, 0.1% Triton X^100.
Inhibition of ACSL5 enzyme activity was monitored with a coupled enzyme Amplex Red assay.
The assay is carried out in 384-well microtiterplates. In a total volume of […], compounds are preincubated with 20 nM ACSL5, in a buffer containing 150 mM MOPS-NaOH, 12 mM MgCl2, 0.03% (v/v) Triton X-100, 2.79 U mL-1 Peroxidase and 24 U mL-1 Acyl-CoA Oxidase (pH 7.6). The reaction is started by the addition of substrate and co factors (25 μM oleate, 30 μM CoA, 1 mM ATP and 50 μM Amplex Red) and the fluorescence detected after 10 minutes at 25° C. with a fluorescence reader (BMG-Fluostar; BMG-Technologies) using an excitation wavelength of 535 nm and an emission wavelength of 590 nm.
(§1) Concentration-response titration points for each compound tested were filled to the Hill equation yielding concentrations of half maximal inhibition […] and maximal inhibition values.
Target sequence in this assay (Q9ULC5 33-683): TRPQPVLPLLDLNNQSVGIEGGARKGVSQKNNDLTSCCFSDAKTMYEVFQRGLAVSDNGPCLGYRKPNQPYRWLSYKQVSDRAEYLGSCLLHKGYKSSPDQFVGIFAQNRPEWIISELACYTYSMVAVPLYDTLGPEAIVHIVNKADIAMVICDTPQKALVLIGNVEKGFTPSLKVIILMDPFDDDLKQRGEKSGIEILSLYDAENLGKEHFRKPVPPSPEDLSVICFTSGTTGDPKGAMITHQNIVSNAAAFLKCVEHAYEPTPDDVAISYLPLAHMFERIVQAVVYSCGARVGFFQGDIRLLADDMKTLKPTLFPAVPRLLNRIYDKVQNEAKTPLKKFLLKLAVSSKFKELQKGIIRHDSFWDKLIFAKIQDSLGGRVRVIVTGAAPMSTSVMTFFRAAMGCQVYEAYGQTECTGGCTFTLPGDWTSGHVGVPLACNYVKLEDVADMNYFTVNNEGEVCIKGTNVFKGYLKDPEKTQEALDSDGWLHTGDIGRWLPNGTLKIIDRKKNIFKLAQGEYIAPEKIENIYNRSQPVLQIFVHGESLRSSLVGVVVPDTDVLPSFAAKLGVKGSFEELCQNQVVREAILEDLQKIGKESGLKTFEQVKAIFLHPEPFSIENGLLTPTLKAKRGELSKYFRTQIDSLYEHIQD

For assay [2], the target named is T1, hACSL5. The assay is described as follows: Cell-based assay (CBA) with B12FA in hACSL5-transfected Expi293F / FlpIn TRex293 cells. Conditions: hACSL5-expressing cells.
Text: To assess the cell penetration and cellular activity of the compounds, a cell-based assay (CBA) was used to detect compound potency in living cells. The assay utilized the fluorescent fatty acid analogue B12FA, a boron-dipyrromethene (BODIPY™) labelled C12 fatty acid that can be incorporated into glycerophosphocholine in the cytoplasmic oil droplets of live cells. A concentration-dependent, red-shifted fluorescence can be induced by the formation of BODIPY™ excimers in the oil droplets.
Expi293F cells transfected with full length hACSL5 plasmid were selected using 1 mg/mL G418 culture medium and clones were selected by in vitro whole cell lysate (WCL) assay. The cell passage number used in the Expi293 CBA assay could not be used beyond 10 passages due to a decrease in hACSL5 expression. Therefore, a CBA using FlpIn TRex293 cells for inducible expression of hACSL5 was also established.
FlpIn TRex293 cells transfected with hACSL5 plasmid were selected in culture medium containing 15 µg/ml Blasticidin and 150 µg/ml Hygromycin. For cell-based assays, stable transfected hACSL5 cells were seeded onto a 96-well plate at 30-50k/well and incubated overnight. For the inducible system, […] tetracycline (or doxycycline) was added to culture medium of FlpIn TRex293 hACSL5 cells on the day before the assay to induce expression of hACSL5. The next day, growth media was replaced with culture medium without FBS and glucose (DMEM glucose (-), ThermoFisher) and cells were incubated for an hour before treating cells with serial diluted compounds containing 20 µM B12FA (ThermoFisher) for another 3 hours in the above medium. Cells were then fixed in 4% formaldehyde for 10 minutes and washed twice with PBS. The plate was read using the Cytation 5 imaging system with an excitation wavelength of 485 nm and observed emissions at 630 nm and 520 nm. The percentage of inhibition was calculated as: […]
wherein A is the ratio of emission intensities at 630 nm/520 nm in the absence of inhibitor (maximum ratio); B is the ratio of the intensities at those wavelengths in the presence of […] of the test compound or non-induced cells (minimum ratio); and X is the ratio of the intensities at a given compound concentration.
as §1
Target sequence in this assay (Q9ULC5 whole entry): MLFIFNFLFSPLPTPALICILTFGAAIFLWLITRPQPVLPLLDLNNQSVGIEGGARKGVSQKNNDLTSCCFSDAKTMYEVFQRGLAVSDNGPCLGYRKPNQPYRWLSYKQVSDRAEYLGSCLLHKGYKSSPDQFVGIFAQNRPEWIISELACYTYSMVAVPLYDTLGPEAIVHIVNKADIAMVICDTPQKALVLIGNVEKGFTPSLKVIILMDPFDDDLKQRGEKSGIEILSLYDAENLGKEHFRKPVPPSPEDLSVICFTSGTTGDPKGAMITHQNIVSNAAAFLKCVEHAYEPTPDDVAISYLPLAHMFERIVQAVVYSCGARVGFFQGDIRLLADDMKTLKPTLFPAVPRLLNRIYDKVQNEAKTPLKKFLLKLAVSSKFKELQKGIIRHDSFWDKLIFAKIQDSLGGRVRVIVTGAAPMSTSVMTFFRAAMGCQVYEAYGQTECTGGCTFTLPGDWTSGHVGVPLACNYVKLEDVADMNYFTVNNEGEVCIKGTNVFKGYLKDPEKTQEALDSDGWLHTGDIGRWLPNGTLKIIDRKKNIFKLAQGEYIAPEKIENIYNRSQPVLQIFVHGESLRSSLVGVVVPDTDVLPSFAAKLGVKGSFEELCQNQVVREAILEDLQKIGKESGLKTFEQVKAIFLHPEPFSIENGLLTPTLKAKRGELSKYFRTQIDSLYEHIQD

Where only a bound is given, the exact number is not on record here.

On to `CC[C@@H](Oc1ccc(C(=O)NS(=O)(=O)c2ccc(OCCN3CCCC3)cc2)c(F)c1F)c1ccc(OCC2CC2)cn1` [(R)-4-(1-(5-(cyclopropylmethoxy)pyridin-2-yl)propoxy)-2,3-difluoro-N-((4-(2-(pyrrolidin-1-yl)ethoxy)phenyl)sulfonyl)benzamide], for which the figures for the IC50 in assay [1] and in assay [2] were below 100 nM and 100 to 500 nM, respectively.
For the molecule `CC[C@@H](Oc1ccc(C(=O)NS(=O)(=O)N2CCN(C3CCCCC3)CC2)c(F)c1F)c1ccc(OCC2CC2)cn1` [(R)-N-((4-cyclohexylpiperazin-1-yl)sulfonyl)-4-(1-(5-(cyclopropylmethoxy)pyridin-2-yl)propoxy)-2,3-difluorobenzamide], the IC50 was below 100 nM in assay [1] and above 500 nM in assay [2].
For `CC[C@@H](Oc1ccc(C(=O)NS(=O)(=O)N2CCN(C3CC3)CC2)c(F)c1F)c1cc(Oc2ccccn2)ccn1` [(R)-N-((4-cyclopropylpiperazin-1-yl)sulfonyl)-2,3-difluoro-4-(1-(4-(pyridin-2-yloxy)pyridin-2-yl)propoxy)benzamide] the same measures were below 100 nM and 100 to 500 nM.
On to `CC[C@@H](Oc1ccc(C(=O)NS(=O)(=O)N2CCN(CC(C)(C)F)CC2)c(F)c1F)c1ccc(Oc2ccccn2)cn1` [(R)-2,3-difluoro-N-((4-(2-fluoro-2-methylpropyl)piperazin-1-yl)sulfonyl)-4-(1-(5-(pyridin-2-yloxy)pyridin-2-yl)propoxy)benzamide], for which the IC50 in assay [1] and in assay [2] was below 100 nM throughout.
For the molecule `CC[C@@H](Oc1ccc(C(=O)NS(=O)(=O)N2CCC(OC3CCN(CCOC)CC3)CC2)c(F)c1F)c1ccc(Oc2ccccn2)cn1` [(R)-2,3-difluoro-N-((4-((1-(2-methoxyethyl)piperidin-4-yl)oxy)piperidin-1-yl)sulfonyl)-4-(1-(5-(pyridin-2-yloxy)pyridin-2-yl)propoxy)benzamide], the IC50 in assay [1] and in assay [2] was below 100 nM each time.
In the case of `CC[C@@H](Oc1ccc(C(=O)NS(=O)(=O)N2C[C@H]3C[C@@H]2CN3C)c(F)c1F)c1ccc(OCC2CC2)cn1` [4-((R)-1-(5-(cyclopropylmethoxy)pyridin-2-yl)propoxy)-2,3-difluoro-N-(((1R,4R)-5-methyl-2,5-diazabicyclo[2.2.1]heptan-2-yl)sulfonyl)benzamide], the IC50 in assay [1] and in assay [2] was 100 to 500 nM in each case.
As for `CC[C@@H](Oc1ccc(C(=O)NS(=O)(=O)N2CCC(OC3CCN(C)CC3)CC2)c(F)c1F)c1cc(Oc2ccccn2)ccn1` [(R)-2,3-difluoro-N-((4-((1-methylpiperidin-4-yl)oxy)piperidin-1-yl)sulfonyl)-4-(1-(4-(pyridin-2-yloxy)pyridin-2-yl)propoxy)benzamide], the IC50 in assay [1] was below 100 nM; in assay [2], 100 to 500 nM.
For `CC[C@@H](Oc1ccc(C(=O)NS(=O)(=O)N2CCC(OC3CCN(C)CC3)CC2)cc1C(F)(F)F)c1ccc(OCC2CC2)cn1` [(R)-4-(1-(5-(cyclopropylmethoxy)pyridin-2-yl)propoxy)-N-((4-((1-methylpiperidin-4-yl)oxy)piperidin-1-yl)sulfonyl)-3-(trifluoromethyl)benzamide] the same measures were below 100 nM and below 100 nM.
For the molecule `CC[C@@H](Oc1ccc(C(=O)NS(=O)(=O)c2ccc(OCCN(C)C)cc2)c(F)c1F)c1cc(Oc2ccccn2)ccn1` [(R)-N-((4-(2-(dimethylamino)ethoxy)phenyl)sulfonyl)-2,3-difluoro-4-(1-(4-(pyridin-2-yloxy)pyridin-2-yl)propoxy)benzamide], the IC50 was below 100 nM in assay [1] and 100 to 500 nM in assay [2].
`CC[C@@H](Oc1ccc(C(=O)NS(=O)(=O)c2ccc(O[C@@H]3C[C@H]4C[C@@H]3CN4)cc2)c(F)c1F)c1ccc(OCC2CC2)cn1` [N-((4-(((1R,4R,5R)-2-azabicyclo[2.2.1]heptan-5-yl)oxy)phenyl)sulfonyl)-4-((R)-1-(5-(cyclopropylmethoxy)pyridin-2-yl)propoxy)-2,3-difluorobenzamide]: the IC50 was below 100 nM in assay [1] and above 500 nM in assay [2].
For the molecule `CC[C@@H](Oc1ccc(C(=O)NS(=O)(=O)c2ccc(OCCN(C)C)cc2)c(F)c1F)c1ccc(Oc2ccccn2)cn1` [(R)-N-((4-(2-(dimethylamino)ethoxy)phenyl)sulfonyl)-2,3-difluoro-4-(1-(5-(pyridin-2-yloxy)pyridin-2-yl)propoxy)benzamide], the values for the IC50 in assay [1] and in assay [2] were below 100 nM and 100 to 500 nM, respectively.
The like results for `CC[C@@H](Oc1ccc(C(=O)NS(=O)(=O)C2CCN(C)CC2)c(F)c1F)c1ccc(Oc2ccccn2)cn1` [(R)-2,3-difluoro-N-((1-methylpiperidin-4-yl)sulfonyl)-4-(1-(5-(pyridin-2-yloxy)pyridin-2-yl)propoxy)benzamide] were, in that order, below 100 nM and 100 to 500 nM.
Regarding `CC[C@@H](Oc1ccc(C(=O)NS(=O)(=O)N2CCN(C3CC3)CC2)c(F)c1F)c1ccc(OCC2CC2)cn1` [(R)-4-(1-(5-(cyclopropylmethoxy)pyridin-2-yl)propoxy)-N-((4-cyclopropylpiperazin-1-yl)sulfonyl)-2,3-difluorobenzamide], the IC50 in assay [1] and in assay [2] was below 100 nM in each case.
As for `CC[C@@H](Oc1ccc(C(=O)NS(=O)(=O)c2ccc(OC3CCN(C)CC3)nn2)c(F)c1F)c1ccc(OCC2CC2)cn1` [(R)-4-(1-(5-(cyclopropylmethoxy)pyridin-2-yl)propoxy)-2,3-difluoro-N-((6-((1-methylpiperidin-4-yl)oxy)pyridazin-3-yl)sulfonyl)benzamide], the IC50 in assay [1] was below 100 nM; in assay [2], above 500 nM.
With `CC[C@@H](Oc1ccc(C(=O)NS(=O)(=O)c2ccc(OCCN(C)C)cc2)cc1C(F)(F)F)c1ccc(OCC2CC2)cn1` [(R)-4-(1-(5-(cyclopropylmethoxy)pyridin-2-yl)propoxy)-N-((4-(2-(dimethylamino)ethoxy)phenyl)sulfonyl)-3-(trifluoromethyl)benzamide], the 50% inhibitory concentration (IC50) is below 100 nM in assay [1] and 100 to 500 nM in assay [2].
In the case of `CC[C@@H](Oc1ccc(C(=O)NS(=O)(=O)N2CCN(C)CC2(C)C)c(F)c1F)c1ccc(Oc2ccccn2)cn1` [(R)-2,3-difluoro-4-(1-(5-(pyridin-2-yloxy)pyridin-2-yl)propoxy)-N-((2,2,4-trimethylpiperazin-1-yl)sulfonyl)benzamide], the IC50 in assay [1] and in assay [2] was below 100 nM throughout.
On to `CC[C@@H](Oc1ccc(C(=O)NS(=O)(=O)N2CCCN(C)CC2)c(F)c1F)c1ccc(OCC2CC2)cn1` [(R)-4-(1-(5-(cyclopropylmethoxy)pyridin-2-yl)propoxy)-2,3-difluoro-N-((4-methyl-1,4-diazepan-1-yl)sulfonyl)benzamide], for which the IC50 in assay [1] and in assay [2] was 100 to 500 nM each time.
For the molecule `CC[C@@H](Oc1ccc(C(=O)NS(=O)(=O)c2ccc(OC3CCN(C)CC3)cn2)c(F)c1F)c1ccc(OCC2CC2)cn1` [(R)-4-(1-(5-(cyclopropylmethoxy)pyridin-2-yl)propoxy)-2,3-difluoro-N-((5-((1-methylpiperidin-4-yl)oxy)pyridin-2-yl)sulfonyl)benzamide], the IC50 was below 100 nM in assay [1] and above 500 nM in assay [2].
With `CC[C@@H](Oc1ccc(C(=O)NS(=O)(=O)c2ccc(OC34CCN(CC3)C4)cc2)c(F)c1F)c1ccc(OCC2CC2)cn1` [(R)-N-((4-((1-azabicyclo[2.2.1]heptan-4-yl)oxy)phenyl)sulfonyl)-4-(1-(5-(cyclopropylmethoxy)pyridin-2-yl)propoxy)-2,3-difluorobenzamide], the IC50 is below 100 nM in assay [1] and 100 to 500 nM in assay [2].
Regarding `CC[C@@H](Oc1ccc(C(=O)NS(=O)(=O)N2CCC(OC3CCN(C)CC3)CC2)c(F)c1F)c1cccc(OCC2CC2)c1` [(R)-4-(1-(3-(cyclopropylmethoxy)phenyl)propoxy)-2,3-difluoro-N-((4-((1-methylpiperidin-4-yl)oxy)piperidin-1-yl)sulfonyl)benzamide], the IC50 in assay [1] and in assay [2] was 100 to 500 nM each time.
